The source made the active and inactive calls. How the calls were made is not given here.

In this data set the test system is rodent carcinogenicity bioassays, tumor incidence. Kind of data set: CCRIS carcinogenicity studies. The procedure, abridged: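 Archive of carcinogenicity, mutagenicity, tumor promotion and tumor inhibition results drawn from journals, NCI reports and other sources, expert-reviewed; covers 1985-2011 and is no longer updated.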

Turning to `CCC(=O)CNCN=O`, the carcinogen call was “active; positive” (Species: HAMSTER, Strain/Sex: SYRIAN/FEMALE, Route: SUBCUTANEOUS, Dose: 4, 8, 16 MG/KG 1/WK FOR LIFE, Dose: 4, 8, 16 MG/KG 1/WK FOR LIFE, Tumor Site: Type of Lesion: NASAL CAVITY: ADENOCARCINOMA, PAPILLOMA, MUCOEPIDERMOID TUMOR, LARYNX OR PHARYNX: PAPILLARY POLYP, PAPILLOMA, ORAL CAVIT, Tumor Site: Type of Lesion: NASAL CAVITY: ADENOCARCINOMA, PAPILLOMA, MUCOEPIDERMOID TUMOR, LARYNX OR PHARYNX: PAPILLARY POLYP, PAPILLOMA, ORAL CAVIT) and “active; positive” (Species: HAMSTER, Strain/Sex: SYRIAN/MALE, Route: SUBCUTANEOUS, Dose: 2.3, 4.6, 9.2 MG/KG 1/WK FOR LIFE, Dose: 2.3, 4.6, 9.2 MG/KG 1/WK FOR LIFE, Tumor Site: Type of Lesion: NASAL CAVITY: ADENOCARCINOMA, PAPILLOMA, MUCOEPIDERMOID TUMOR, LARYNX OR PHARYNX: PAPILLARY POLYP, PAPILLOMA, ORAL CAVIT, Tumor Site: Type of Lesion: NASAL CAVITY: ADENOCARCINOMA, PAPILLOMA, MUCOEPIDERMOID TUMOR, LARYNX OR PHARYNX: PAPILLARY POLYP, PAPILLOMA, ORAL CAVIT).
Turning to `Cn1c(=O)c2c(ncn2C)n(C)c1=O`, the carcinogen call reads like this: (Species: RAT, Strain/Sex: SPRAGUE-DAWLEY/FEMALE, Route: ORAL, Dose: 0, 200, 430, 930, 2000 MG/L IN DRINKING WATER FOR 24 MO (STUDY DURATION: 2 YR), Dose: 0, 200, 430, 930, 2000 MG/L IN DRINKING WATER FOR 24 MO (STUDY DURATION: 2 YR)) “inactive; negative”; (Species: RAT, Strain/Sex: SPRAGUE-DAWLEY/MALE, Route: ORAL, Dose: 0, 200, 430, 930, 2000 MG/L IN DRINKING WATER FOR 24 MO (STUDY DURATION: 2 YR), Dose: 0, 200, 430, 930, 2000 MG/L IN DRINKING WATER FOR 24 MO (STUDY DURATION: 2 YR)) “inactive; negative”; (Species: RAT, Strain/Sex: WISTAR/MALE,FEMALE, Route: ORAL, Dose: 0, 0.1, 0.2% SOLN. IN DRINKING WATER FOR 78 WK, Dose: 0, 0.1, 0.2% SOLN. IN DRINKING WATER FOR 78 WK) “inactive; negative”.
As to `CCCCN(N=O)C(CCC)OO` (stereo not given), the carcinogen call (Species: RAT, Strain/Sex: F344/MALE, Route: SUBCUTANEOUS, Dose: 38 UMOL/KG IN OLIVE OIL 1/WK FOR 10 WK, Tumor Site: Type of Lesion: INJECTION SITE: MALIGNANT FIBROUS HISTIOCYTOMA) was “active; positive”.
On to `FCCl`, for which the carcinogen call (Species: RAT, Strain/Sex: WISTAR/MALE,FEMALE, Route: GAVAGE, Dose: 300 MG/KG IN CORN OIL 5/WK FOR 52 WK, Tumor Site: Type of Lesion: STOMACH: SQUAMOUS CELL CARCINOMA, FIBROSARCOMA) was “active; positive”.
As to `CCn1cc(C(=O)O)c(=O)c2cc3c(cc21)OCO3`, the carcinogen call is “inactive; negative” (Species: MOUSE, Strain/Sex: ICR/FEMALE, Route: ORAL, Dose: 0, 50, 150, 500 PPM IN DIET FOR 78 WK (STUDY DURATION: 78 WK), Dose: 0, 50, 150, 500 PPM IN DIET FOR 78 WK (STUDY DURATION: 78 WK)); “inactive; negative” (Species: MOUSE, Strain/Sex: ICR/MALE, Route: ORAL, Dose: 0, 50, 150, 500 PPM IN DIET FOR 78 WK (STUDY DURATION: 78 WK), Dose: 0, 50, 150, 500 PPM IN DIET FOR 78 WK (STUDY DURATION: 78 WK)); “inactive; negative” (Species: RAT, Strain/Sex: WISTAR/FEMALE, Route: ORAL, Dose: 0, 30, 100, 300, 1000 PPM IN DIET FOR 104 WK (STUDY DURATION: 104 WK), Dose: 0, 30, 100, 300, 1000 PPM IN DIET FOR 104 WK (STUDY DURATION: 104 WK)); “active; positive” (Species: RAT, Strain/Sex: WISTAR/MALE, Route: ORAL, Dose: 0, 30, 100, 300, 1000 PPM IN DIET FOR 104 WK (STUDY DURATION: 104 WK), Dose: 0, 30, 100, 300, 1000 PPM IN DIET FOR 104 WK (STUDY DURATION: 104 WK), Tumor Site: Type of Lesion: TESTIS: BENIGN LEYDIG CELL TUMOR).
For the compound `O[C@H]1[C@H]2O[C@H]2C=C[C@@H]1O`, the carcinogen call is “active; positive” (Species: MOUSE, Strain/Sex: SWISS/FEMALE, Route: INTRAPERITONEAL, Dose: 0, 13.7 UMOL ADMINISTERED AS 3 UNEQUAL DOSES (1/7, 2/7, AND 4/7 OF THE TOTAL DOSE) OVER A 2-WK PERIOD (STUDY DURATION: 2, Tumor Site: Type of Lesion: LUNG: ADENOMA) and “active; positive” (Species: MOUSE, Strain/Sex: SWISS/MALE, Route: INTRAPERITONEAL, Dose: 0, 13.7 UMOL ADMINISTERED AS 3 UNEQUAL DOSES (1/7, 2/7, AND 4/7 OF THE TOTAL DOSE) OVER A 2-WK PERIOD (STUDY DURATION: 2, Tumor Site: Type of Lesion: LUNG: ADENOMA).
Regarding `Nc1ccc(Oc2ccc(N)c(Cl)c2)cc1Cl`, the carcinogen call (Species: RAT, Route: SUBCUTANEOUS, Tumor Site: Type of Lesion: EAR (CANAL)) was “active; positive”.
In the case of `C=C(F)F`, the carcinogen call (Species: RAT, Strain/Sex: SPRAGUE-DAWLEY/FEMALE, Route: GAVAGE, Dose: 0, 4.12, 8.25 MG/KG BW IN OLIVE OIL 1/D 4-5 D/WK FOR 52 WK (STUDY DURATION: LIFETIME), Dose: 0, 4.12, 8.25 MG/KG BW IN OLIVE OIL 1/D 4-5 D/WK FOR 52 WK (STUDY DURATION: LIFETIME), Tumor Site: Type of Lesion: [BRAIN WAS ONLY SITE EVALUATED]) is “inactive; negative” and the carcinogen call (Species: RAT, Strain/Sex: SPRAGUE-DAWLEY/MALE, Route: GAVAGE, Dose: 0, 4.12, 8.25 MG/KG BW IN OLIVE OIL 1/D 4-5 D/WK FOR 52 WK (STUDY DURATION: LIFETIME), Dose: 0, 4.12, 8.25 MG/KG BW IN OLIVE OIL 1/D 4-5 D/WK FOR 52 WK (STUDY DURATION: LIFETIME), Tumor Site: Type of Lesion: [BRAIN WAS ONLY SITE EVALUATED]) is “inactive; negative”.
`Nc1cnn([C@@H]2O[C@H](CO)[C@@H](O)[C@H]2O)c(=O)n1`: the carcinogen call (Species: RAT, Strain/Sex: F344/MALE, Route: INTRAPERITONEAL, Dose: 0, 2.5 MG/KG IN 0.9% SALINE 3/WK FOR 1 YR (STUDY DURATION: 1 YR)) is “inactive; negative”.
For the compound `O=[N+]([O-])c1ccc2nc[nH]c2c1`, the carcinogen call reads like this: (Species: MOUSE, Strain/Sex: B6C3F1/FEMALE, Route: ORAL, Dose: 0, 0.12, 0.24% OF DIET, Dose: 0, 0.12, 0.24% OF DIET, Tumor Site: Type of Lesion: LIVER: HEPATOCELLULAR CARCINOMA OR HEPATOCELLULAR ADENOMA) “active; positive”; (Species: MOUSE, Strain/Sex: B6C3F1/MALE, Route: ORAL, Dose: 0, 0.12, 0.24% OF DIET, Dose: 0, 0.12, 0.24% OF DIET, Tumor Site: Type of Lesion: LIVER: HEPATOCELLULAR CARCINOMA OR HEPATOCELLULAR ADENOMA) “active; positive”; (Species: RAT, Strain/Sex: F344/FEMALE, Route: ORAL, Dose: 0, 0.12, 0.5% OF DIET, Dose: 0, 0.12, 0.5% OF DIET) “inactive; negative”; (Species: RAT, Strain/Sex: F344/MALE, Route: ORAL, Dose: 0, 0.12, 0.5% OF DIET, Dose: 0, 0.12, 0.5% OF DIET) “inactive; negative”.
As for `OC1c2cccc3c2[C@]2(O[C@H]2C1O)c1ccccc1-3` (stereo not given in full), the carcinogen call is “active; positive” (Species: MOUSE, Strain/Sex: ICR/FEMALE, Route: INTRAPERITONEAL, Dose: 0, 500 NMOL (TOTAL DOSE) ADMINISTERED IN DOSES OF 1/7, 2/7, AND 4/7 ON DAYS 1, 7, AND 15 OF LIFE, RESPECTIVELY (STUDY DU, Tumor Site: Type of Lesion: LUNG: TUMOR); “active; positive” (Species: MOUSE, Strain/Sex: ICR/MALE, Route: INTRAPERITONEAL, Dose: 0, 500 NMOL (TOTAL DOSE) ADMINISTERED IN DOSES OF 1/7, 2/7, AND 4/7 ON DAYS 1, 7 AND 15 OF LIFE , RESPECTIVELY (STUDY DU, Tumor Site: Type of Lesion: LUNG: TUMOR, LIVER: TUMOR); “active; positive” (Species: RAT, Strain/Sex: STRAIN-CD/FEMALE, Route: INJECTION, Dose: 0, 2, 10 UMOL IN 0.1 ML DMSO INJECTED INTO MAMMARY TISSUE UNDER EACH OF THE 3 LEFT THORACIC NIPPLES FOLLOWED BY SIMILAR, Dose: 0, 2, 10 UMOL IN 0.1 ML DMSO INJECTED INTO MAMMARY TISSUE UNDER EACH OF THE 3 LEFT THORACIC NIPPLES FOLLOWED BY SIMILAR, Tumor Site: Type of Lesion: MAMMARY GLAND: TUMOR).
Regarding `NC(=O)OCCO`, for the setting “Species: MOUSE, Strain/Sex: STRAIN-A/MALE, Route: INTRAPERITONEAL, Dose: 0, 1.12, 4.6, 11.2 MMOL/KG IN ISOTONIC SALINE ONCE AT 6 WK OF AGE (STUDY DURATION: 16 WK), Dose: 0, 1.12, 4.6, 11.2 MMOL/KG IN ISOTONIC SALINE ONCE AT 6 WK OF AGE (STUDY DURATION: 16 WK), Tumor Site: Type of Lesion: LUNG: ADENOMA”, the carcinogen call was “active; positive”.

(Values after PubChem BioAssay AID1259411 (Chemical Carcinogenesis Research Information System (CCRIS), 2018).)
